# Measured values as given in publication PMC5917092, “Fine-Tuned Enzymatic Hydrolysis of Organosolv Pretreated Forest Materials for the Efficient Production of Cellobiose” (Frontiers in Chemistry, 2018).
# “Also recorded” adds a separate entry of the source.
# What was measured:
# TtCBH6 = assay: Kinetics and inhibition of TtCBH6 by mono/oligosaccharides with MUG2 as substrate (Lineweaver-Burk); format: biochemical, Thermothelomyces thermophila; conditions: for Inhibitory effect on TtCBH6 (in words): activity on MUG2, inhibitor 5 and 10 mM
# Protocol: The release of methyl-umbelliferyl was followed by measuring the absorbance at […]. The inhibition of CBHs by specific mono/oligosaccharides was determined by estimating the enzymatic activity on MUG2 in presence of different inhibitor concentrations (5 and 10 mM). Kinetic analysis of inhibition was carried out on xylose (X1), xylobiose (X2), xylotriose (X3), mannose (M1), mannobiose (M2), mannotriose (M3), glucose (G1), cellobiose (G2), and xylosyl-cellobiose (XC). Lineweaver-Burk plots were drawn to determine Km, Vmax, and inhibition constant (Ki) values.
# TtCBH7 = TtCBH7 (Thermothelomyces thermophilus, UniProt G2Q665); assay: Kinetics and inhibition of TtCBH7 by mono/oligosaccharides with MUG2 as substrate (Lineweaver-Burk); format: biochemical, Thermothelomyces thermophila; conditions: for Kmapp: TtCBH7, substrate MUG2, in the presence of 10 mM inhibitor; for Inhibitory effect on TtCBH7 (in words): activity on MUG2, inhibitor 5 and 10 mM
# Chain of TtCBH7 (G2Q665 entry or part of it): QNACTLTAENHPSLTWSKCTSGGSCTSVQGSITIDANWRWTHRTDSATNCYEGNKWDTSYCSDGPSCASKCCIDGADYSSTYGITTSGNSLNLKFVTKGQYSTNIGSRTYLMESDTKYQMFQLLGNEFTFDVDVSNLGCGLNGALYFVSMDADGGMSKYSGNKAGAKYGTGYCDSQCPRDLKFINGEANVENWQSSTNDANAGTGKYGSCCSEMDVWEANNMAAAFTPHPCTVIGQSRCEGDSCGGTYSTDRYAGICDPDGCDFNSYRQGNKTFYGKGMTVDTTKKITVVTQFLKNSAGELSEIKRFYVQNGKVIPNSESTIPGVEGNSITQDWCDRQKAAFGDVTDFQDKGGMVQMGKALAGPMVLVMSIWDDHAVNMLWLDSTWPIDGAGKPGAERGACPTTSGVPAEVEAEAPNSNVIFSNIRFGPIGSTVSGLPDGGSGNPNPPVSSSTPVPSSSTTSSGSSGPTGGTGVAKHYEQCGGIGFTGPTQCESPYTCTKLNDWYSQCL
# Protocol: The release of methyl-umbelliferyl was followed by measuring the absorbance at A350. The inhibition of CBHs by specific mono/oligosaccharides was determined by estimating the enzymatic activity on MUG2 in presence of different inhibitor concentrations (5 and 10 mM). Kinetic analysis of inhibition was carried out on xylose (X1), xylobiose (X2), xylotriose (X3), mannose (M1), mannobiose (M2), mannotriose (M3), glucose (G1), cellobiose (G2), and xylosyl-cellobiose (XC). Lineweaver–Burk plots were drawn to determine Km, Vmax, and inhibition constant (Ki) values.
# Figure 4 Inhibition studies of TtCBH7 by glucan, xylan, and mannan mono- and oligo-saccharides. Absorbance at 355 nm was measured after 30 min incubation with MUG2 at concentrations ranging from 0.1 to 2 mM, at 45°C, pH 5.0.
# [1] = TtCBH6, substrate MUG2, inhibitor 5 mM (Km app)
# [2] = TtCBH6, substrate MUG2, inhibitor 10 mM (Km app)
# [3] = TtCBH7, substrate MUG2, inhibitor 5 mM (Km app)
# [4] = TtCBH7, substrate MUG2, inhibitor 10 mM
# [5] = TtCBH7, substrate MUG2, inhibitor 10 mM (Km app)
Molecule,Km/Km^app (TtCBH6; [1]) [µM],Km/Km^app (TtCBH6; [2]) [µM],Inhibitory effect on TtCBH6 (in words) (TtCBH6),Kmapp (TtCBH7) [mM],"Ki (TtCBH7; TtCBH7, substrate MUG2, inhibitor 5 mM) [mM]",Km/Km^app (TtCBH7; [3]) [µM],Ki (TtCBH7; [4]) [mM],Km/Km^app (TtCBH7; [5]) [µM],Inhibitory effect on TtCBH7 (in words) (TtCBH7),"Km/Km^app (TtCBH6; TtCBH6, substrate MUG2, no inhibitor (Km), pH 5.0, 45°C) [µM]","Km (TtCBH7; TtCBH7, absence of any inhibitor) [µM]","Km/Km^app (TtCBH7; TtCBH7, substrate MUG2, no inhibitor (Km), pH 5.0, 45°C) [µM]"
"O=C[C@H](O)[C@@H](O)[C@H](O[C@@H]1O[C@H](CO)[C@@H](O)[C@H](O)[C@H]1O)[C@H](O)CO [Cellobiose, cellobiose]",0.40,0.45,no inhibitory effect,6.54,1.43,4.04,1.59,6.54,strong inhibitor; also recorded: strongly inhibited,–,–,–
"OC[C@H]1O[C@@H](O[C@H]2[C@H](O)[C@H](O)C(O)O[C@@H]2CO)[C@@H](O)[C@@H](O)[C@@H]1O (some centres unmarked) [Mannobiose, mannobiose]",0.38,0.35,–,1.04,–,0.91,–,1.04,–,–,–,–
"OC[C@H]1OC(O)[C@H](O)[C@@H](O)[C@@H]1O (some centres unmarked) [Glucose, glucose]",0.39,0.41,no inhibitory effect,1.58,–,1.00,13.2,1.58,–,–,–,–
"OC1OC[C@@H](O[C@@H]2OC[C@@H](O[C@@H]3OC[C@@H](O)[C@H](O)[C@H]3O)[C@H](O)[C@H]2O)[C@H](O)[C@H]1O (some centres unmarked) [Xylotriose, xylotriose]",0.42,0.46,–,–,–,0.77,–,0.95,very weak inhibitory effect,–,–,–
"Cc1cc(=O)oc2cc(O[C@@H]3O[C@H](CO)[C@@H](O[C@@H]4O[C@H](CO)[C@@H](O)[C@H](O)[C@H]4O)[C@H](O)[C@H]3O)ccc12 [MUG2, 4-methyl-umbelliferyl-β-cellobiose]",–,–,–,–,–,–,–,–,–,0.42,900,0.90
mannotriose,0.41,0.44,–,–,–,0.88,–,0.98,very weak inhibitory effect,–,–,–
xylosyl-cellobiose,0.43,0.48,–,–,–,0.99,–,1.01,–,–,–,–
"OC1OC[C@@H](O[C@@H]2OC[C@@H](O)[C@H](O)[C@H]2O)[C@H](O)[C@H]1O (some centres unmarked) [Xylobiose, xylobiose]",0.44,0.41,–,1.17,–,0.81,33.3,1.17,–,–,–,–
